# Laboratory results as given in patent US10861154B2, “Cell analysis system, cell analysis program and cell analysis method” (Sony Corporation, priority 2013, dated 2020).
# Experiments:
# Assay type in all cases: cell-based
# [1] = tested on: rat cerebral cortex primary culture; assay: Motion amount of rat cerebral cortex primary culture on change in osmotic pressure by galactose (Example 3); conditions: galactose at a final concentration of 2.5%, compared with no galactose, FIG. 14
# Protocol: On the microscope having the chamber, rat cerebral cortex primary culture (produced by Lonza, Inc.) was set. A video image of the cells, of 260 frames at object lens magnification 20× and at 5 fps, was taken and was obtained as a cell image. To the cell culture, galactose at a final concentration of 2.5% was added. The cell image was analyzed with the use of the above-described cell analysis system. Specifically, the motion information was extracted by block matching, using each of the neural cells in the cell image as the extraction range, and the motion amount was calculated from the motion information.
# [2] = tested on: iPS cell-derived neural cells “iCell Neuron”; assay: Motion amount of iCell Neuron after adding ionotropic receptor antagonists (Example 2); conditions: 5 μM, FIGS. 9 and 10
# Protocol: (§1) On the microscope having the chamber, iPS cell-derived neural cells “iCell Neuron” (produced by Cellular Dynamics International, Inc.) and rat cerebral cortex primary culture (produced by Lonza, Inc.) were each set. Video images of the cells, of 260 frames at object lens magnification 20× and at 7.5 fps (for iCell Neuron) or 5 fps (for rat cerebral cortex primary culture), were taken and were obtained as cell images. A variety of ionotropic receptor antagonists were added to each of the cell cultures. The ionotropic receptor antagonist was Bicuculline which is GABA (gamma-aminobutyrate) receptor antagonist; or CNQX (6-cyano-7-nitroquinoxaline-2,3-dione) which is non-NMDA Glu (glutamate) receptor antagonist.
# (§2) The cell image was analyzed with the use of the above-described cell analysis system. Specifically, the motion information was extracted by block matching, using each of the neural cells in the cell image as the extraction range, and the motion amount was calculated from the motion information. FIGS. 9 to 12 are graphs showing results of the calculation of the motion amount. […] Note that the motion amounts shown in the respective figures are average values of the calculated motion amounts for a plurality of detail parts of nerves. […]
# [3] = tested on: rat cerebral cortex primary culture; assay: Motion amount of rat cerebral cortex primary culture after adding ionotropic receptor antagonists (Example 2)
# Protocol: as §1, §2
# [4] = tested on: rat cerebral cortex primary culture; assay: Motion amount of rat cerebral cortex primary culture after adding aquaporin inhibitor (Example 3); conditions: 5 μm of HgCl2, FIG. 15
# Protocol: Further, on the microscope having the chamber, rat cerebral cortex primary culture (produced by Lonza, Inc.) was set. A video image of the cells, of 260 frames at object lens magnification 20× and at 7.5 fps (for iCell Neuron) or 5 fps (for rat cerebral cortex primary culture), was taken and was obtained as a cell image. To the cell culture, […] of HgCl2 as aquaporin inhibitor was added.
# The cell image was analyzed with the use of the above-described cell analysis system. Specifically, the motion information was extracted by block matching, using each of the neural cells in the cell image as the extraction range, and the motion amount was calculated from the motion information. FIG. 15 is a graph showing a result of the calculation of the motion amount. In the figure, “0 min” in the abscissa is the time of the addition of the […], and the ordinate indicates a relative motion amount when the value before adding HgCl2 (at 0 min) is assumed to be 1.
# [5] = tested on: metabolism of the cell; assay: Effect on metabolism of the cell; conditions: 5 μm of HgCl2
compound,measurement,setting,value
O=C[C@H](O)[C@@H](O)[C@@H](O)[C@H](O)CO [galactose],median value of the motion amounts for the extraction ranges,[1],almost completely reduced
"N#Cc1cc2c(cc1[N+](=O)[O-])=NC(=O)C(=O)N=2 [CNQX, 6-cyano-7-nitroquinoxaline-2,3-dione]","relative motion amount after adding the ionotropic receptor antagonist, value at 0 min = 1",[2],transiently reduced
same,"relative motion amount after adding the ionotropic receptor antagonist, value at 0 min = 1","[3]; 5 μM, FIGS. 11 and 12",decreased
same,motion amount for each individual cell,"[3]; 5 μm of CNQX, FIG. 13",the cells in which the motion amount was decreased by an influence of the Glu receptor antagonist and the cells in which the motion amount was not decreased
[Cl][Hg][Cl] [HgCl2],"relative motion amount after adding HgCl2, value at 0 min = 1",[4],transiently reduced
same,inhibition of metabolism of the cell,[5],does not inhibit metabolism of the cell
